Experimental data published in US20250222120A1, “SYNTHESIS OF NOVEL SMALL MOLECULE CARM1 DEGRADERS, COMPOUNDS FORMED THEREBY, AND PHARMACEUTICAL COMPOSITIONS CONTAINING THEM” (Wisconsin Alumni Research Foundation, priority 2024, published 2025).

How the values were obtained:
[1] = target: T1, CARM1 (Homo sapiens, UniProt Q86X55); experiment: CARM1 degradation by western blot in MCF7 cells; assay type: cell-based; set-up: Cell lysates were collected and the CARM1 levels were detected by western blots; endogenous in cells; host or cells: MCF7
T1 sequence (Q86X55 1-608): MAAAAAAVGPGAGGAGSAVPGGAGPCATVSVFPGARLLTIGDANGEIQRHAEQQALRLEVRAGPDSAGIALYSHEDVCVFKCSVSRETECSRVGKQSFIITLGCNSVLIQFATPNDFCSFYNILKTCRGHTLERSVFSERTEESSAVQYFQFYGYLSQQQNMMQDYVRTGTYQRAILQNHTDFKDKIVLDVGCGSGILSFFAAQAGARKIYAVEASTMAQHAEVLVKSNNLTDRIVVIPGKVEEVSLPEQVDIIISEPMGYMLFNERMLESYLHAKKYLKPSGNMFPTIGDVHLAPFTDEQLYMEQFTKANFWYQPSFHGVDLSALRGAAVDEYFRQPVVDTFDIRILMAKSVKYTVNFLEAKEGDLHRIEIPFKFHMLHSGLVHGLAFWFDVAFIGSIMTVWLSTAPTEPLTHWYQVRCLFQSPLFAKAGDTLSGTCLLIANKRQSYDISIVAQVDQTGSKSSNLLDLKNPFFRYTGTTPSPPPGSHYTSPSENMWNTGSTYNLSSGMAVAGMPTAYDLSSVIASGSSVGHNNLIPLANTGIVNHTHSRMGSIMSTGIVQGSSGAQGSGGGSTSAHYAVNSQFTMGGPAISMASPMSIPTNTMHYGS
Procedure: Based on the structure of TPVC3, CARM1 degraders with stable and flexible alkyl linkages 2a-e were designed and synthesized. Degrader 2b bears the same linker length as TPVC3, while 2a has one less carbon. However, we also changed the hydrolytic labile C═N double bond, which is part of the acylhydrazone motif, in TPVC3 to a C—C bond in compound 2b. This change may influence the required optimal linker length. […] Western blot assays were performed to evaluate the CARM1 degradation activity of the compounds after treating MCF7 cells with these degraders at two concentrations (0.5 and 1.0 μM) for 24 h. […] It has one less carbon atom than 2a in terms of length. […] It has the same linker length as 2d.
The treatment dose and time were determined based on time-course and dose titration experiments (FIG. 4B-4C).
Western Blot Assay. Cells were harvested and washed with Dulbecco's phosphate-buffered saline (PBS), then lysed with 1×RIPA lysis buffer (50 mM Tris pH 7.5, 150 mM NaCl, 1% NP-40, 0.5% sodium deoxycholate, and 0.1% sodium dodecyl sulfate) supplemented with 1 mM phenylmethylsulfonyl fluoride, 10 μg/mL aprotinin, 1 μM leupeptin, and 10 μg/mL pepstatin on ice for 20 min. The supernatant was collected after spinning down at 15000 RPM at 4 degrees Celsius for 10 min. The concentration of whole lysates was quantified using a Bradford assay. 50-75 μg of cell lysates was boiled in 4× Laemmli Loading Dye and boiled at 100 degrees Celsius for 10 min. 25 μg were run in 8% SDS-PAGE gels and transferred to nitrocellulose membranes. Blots were blocked in 5% skim milk in PBST [PBS and 0.1% Tween 20] for 45 min, then incubated with primary antibodies at 4 degrees Celsius overnight. Blots were washed in PBST for 30 min, then incubated with horseradish peroxidase-linked secondary antibodies (Jackson ImmunoResearch) for 1 hr. Afterwards, blots were washed in PBST for 15-30 min, then treated with chemiluminescent ECL reagent and imaged with the ChemiDoc Imaging System (Bio-Rad) or Azure 600 (Azure Biosystems). Expression levels of the indicated proteins were probed by the following antibodies: anti-CARM1, anti-me-BAF155, anti-me-PABP1, anti-PABP1,^7 anti-BAF155 (D7F8S, Cell Signaling Technology), anti-PRMT1 (Bethyl), anti-PRMT6 (D-5, Santa Cruz Biotechnology), anti-β-Actin (ABclonal Technology, Sigma-Aldrich), anti-Hsp90 (H-114, Santa Cruz Biotechnology).

[2] = tested on: MCF7 cells; experiment: Global quantitative proteomic analysis of MCF7 cells by mass spectrometry; assay type: cell-based, Homo sapiens; conditions: 25 nM, 4 h, two-fold cutoff, p-value ≤0.05, 3491 proteins quantified
Procedure: Sample preparation for global proteomics analysis. Sample preparation is similar to the previous report (Ma et al. “Strategy Based on Deglycosylation, Multiprotease, and Hydrophilic Interaction Chromatography for Large-Scale Profiling of Protein Methylation” Anal. Chem. 2017, 89 (23), 12909-12917). Briefly, treated MCF7 cells were harvested by washing with PBS buffer (Gibco, pH 7.4) and lysed in RIPA buffer supplemented with protease inhibitors for 20 min, then protein concentration was determined using a BCA Protein Assay Kit (Thermo Pierce, Rockford, IL) per manufacturer instructions. […] The concentrations of the peptide mixture were measured by peptide assay (Thermo Fisher Scientific). […]
LC-MS/MS data acquisition. Samples were analyzed on an Orbitrap Fusion Lumos Tribrid mass spectrometer (Thermo Fisher Scientific) coupled to a Dionex UltiMate 3000 UPLC system. […]
Data analysis. Protein identification and quantification by MaxQuant (version 1.5.3.8) based database searching, using the integrated Andromeda search engine with FDR <1% at peptide and protein levels. […] For label-free protein quantification (LFQ), the MaxQuant LFQ algorithm was used to quantitate the MS signals, and the proteins' intensities were represented in LFQintesnit (Schaab et al. “Analysis of High Accuracy, Quantitative Proteomics Data in the MaxQB Database” Mol. Cell. Proteomics 2012, 11 (3), M111.014068). […]

[3] = tested on: BAF155 me2a; experiment: BAF155 me2a level in BT474 cells, western blot; assay type: cell-based; conditions: 10 μM, after 48 h
From the text: (§1) FIGS. 7A-7F. […] Cell lysates were collected and CARM1, methyl-BAF155, total BAF155, methyl-PABP1, and total PABP1 levels were detected by Western blot. […] Cell lysates were collected and CARM1, methyl-BAF155, total BAF155 levels were detected by Western blot. […] Cell proliferation rate normalized to day 0 was plotted. […] Migrated cells were stained with 1% crystal violet and the percentage of migrated cells were plotted. Data mean±s.d. ***. P≤0.001.
(§2) Western Blot Assay. Cells were harvested and washed with Dulbecco's phosphate-buffered saline (PBS), then lysed with 1×RIPA lysis buffer (50 mM Tris pH 7.5, 150 mM NaCl, 1% NP-40, 0.5% sodium deoxycholate, and 0.1% sodium dodecyl sulfate) supplemented with 1 mM phenylmethylsulfonyl fluoride, 10 μg/mL aprotinin, 1 μM leupeptin, and 10 μg/mL pepstatin on ice for 20 min. The supernatant was collected after spinning down at 15000 RPM at 4 degrees Celsius for 10 min. The concentration of whole lysates was quantified using a Bradford assay. 50-75 μg of cell lysates was boiled in 4× Laemmli Loading Dye and boiled at 100 degrees Celsius for 10 min. 25 μg were run in 8% SDS-PAGE gels and transferred to nitrocellulose membranes. Blots were blocked in 5% skim milk in PBST [PBS and 0.1% Tween 20] for 45 min, then incubated with primary antibodies at 4 degrees Celsius overnight. […]

[4] = tested on: MDA-MB-231 cells; experiment: Transwell migration assay, MDA-MB-231 cells; assay type: cell-based; conditions: 10 μM, transwell, 20 h
Procedure: Transwell Migration Assay. Cells were harvested and washed in serum-free DMEM. The wells of a 24-well plate were filled with 800 μL of DMEM with 10% FBS. Transwell inserts with […] pore size were then added to the wells with DMEM. Cells were resuspended in serum-free DMEM, then 1×10^5 cells in 200 μL were added to the upper chambers. Drug treatments were added to the lower chambers, then incubated for 20 h at 37° C. The cells on the upper surface were removed with cotton swabs. Migratory cells were fixed in 3.7% formaldehyde at room temperature, followed by 100% methanol at −20° C. Fixed cells were stained with 1% crystal violet in 20% methanol for 30 min. The migration area was quantified from five independent fields of view of the lower surface of the membrane under a microscope.

[5] = tested on: BAF155 me2a; experiment: BAF155 me2a level in MDA-MB-231 cells, western blot; assay type: cell-based; conditions: 10 μM, after 48 h
From the text: as §1, §2

| CARM1 degradation by negative control [1] | Compound | Number of significantly changed proteins compared to the DMSO group [2] | BAF155 me2a level [3] | Cell migration [4] | BAF155 me2a level [5] |
| --- | --- | --- | --- | --- | --- |
| No CARM1 degradation was observed | COCCN1CCC(c2cc(CN(C)C(=O)c3cccc(Oc4ccc(OCC(=O)N5CCC(CN6CCC(CN7CCN(CC(=O)N[C@H](C(=O)N8C[C@H](O)C[C@H]8C(=O)N[C@@H](C)c8ccc(-c9scnc9C)cc8)C(C)(C)C)CC7)CC6)CC5)cc4)c3)ccn2)CC1 [Compound 3bN, (2S,4R)-4-hydroxy-1-((S)-2-(2-(4-((1-((1-(2-(4-(3-(((2-(1-(2-methoxyethyl)piperidin-4-yl)pyridin-4-yl)methyl)(methyl)carbamoyl)phenoxy)phenoxy)acetyl)piperidin-4-yl)methyl)piperidin-4-yl)methyl)piperazin-1-yl)acetamido)-3,3-dimethylbutanoyl)-N—((S)-1-(4-(4-methylthiazol-5-yl)phenyl)ethyl)pyrrolidine-2-carboxamide] | 45 | – | – | – |
| – | CNCCN1CCC(c2cc(CN(C)C(=O)c3cccc(Oc4ccccc4)c3)ccn2)CC1 [TP-064, reference compound] | – | decrease of BAF155 me2a level was observed | inhibited cell migration at a similar level | decrease of BAF155 me2a level was observed |
